Reference: patent US5037830A, “Novel thiouracyl derivatives, pharmaceutical compositions containing them and process for preparing same” (Richter Gedeon Vegyeszeti Gyar RT, priority 1989, dated 1991)
Like-named read-outs stand apart in the source and are kept apart here.

Key:
[1] = tested on: spontaneous gastric acid secretion; assay: Gastric acid secretion-inhibiting effect according to Shay's method; assay type: in vivo, female OFA rats; details: for Gastric acid, change / Gastric juice, change: vs control; for Gastric acid, treated: titration with 0.1N NaOH; for inhibitor effect on gastric acid secretion, in words: compared with reference drugs; for ED50: po, gastric acid, Shay rat
Protocol: After being starved for 24 hours, female OFA rats weighing 130 to 160 g were orally treated with the compounds to be tested. (15 animals were used for each dose.) One hour later laparotomy and pylorus ligature were carried out under ether anaesthesia according to Shay [Gastroenterology 5, 43 (1945)]. After 5 hours the animals were killed by an overdose of ether, their stomaches were excised and the volume and acid content of the gastric juice were determined. The acid was measured by titration with 0.1N NaOH, by using Topfer's indicator.

[2] = tested on: necrosis induced by ethanol containing hydrochloric acid; assay: Cytoprotective effect (modified Robert's test); assay type: in vivo; details: for Bleedings, change: vs control; for ED50: po, cytoprotection
Protocol: The modified Robert's test [Gastroenterology 17, 761 (1979)] was used. The necrotizing agent (100 ml of abs. ethanol containing 2 ml of concentrated hydrochloric acid) was orally administered in a volume of 0.5 ml/100 g by 30 minutes after giving the compound to be tested. (12 animals were used for each dose.) After 1 hour the animals were killed by ether and the bleedings on the glandular part of their stomach were evaluated.

[3] = tested on: gastric ulcer after pylorus ligature; assay: Gastric ulcer-inhibiting effect in rats operated according to Shay's method; assay type: in vivo, female OFA rats; details: Rattus norvegicus, po, 18 h, p.o.
Protocol: Female OFA rats starved for 24 hours weighing 150 to 160 g were used. (The animals were allowed to drink water ad libitum). The animals were orally treated with the substance to be tested and after 1 hour laparotomy and pylorus ligature according to Shay [Gastroenterology 5, 43 (1945)] were performed under ether anaesthesia. After 18 hours the number and size of ulcers formed on the membranaceous part of the stomach were examined under microscope. The evaluation was made in relation to the control group and the ED50 values were determined. The sizes of the ulcers were expressed as score values from 0.5 to 32.

[4] = tested on: reserpine-induced gastric ulcer; assay: Inhibition of the reserpine-induced gastric ulcer; assay type: in vivo, female OFA rats; details: Rattus norvegicus, po, 18 h, p.o., reserpine 5 mg/kg s.c.
Protocol: After being starved for 24 hours, female OFA rats were orally treated with the compounds to be tested and then subcutaneously (s.c.) with 5 mg/kg of reserpine after 1 hour. After 18 hours the animals were killed and their stomach were examined under microscope. The evaluation was performed as described under the preceding paragraph 1.

[5] = read-out: ED50 related to the number of ulcers
[6] = read-out: ED50 related to the occurrance of ulcers
[7] = read-out: ED50 related to the severity of ulcers

| Structure (SMILES) | Gastric juice, treated ([1]; 5 mg/kg p.o.) [mL] | Gastric acid, change ([1]; 5 mg/kg p.o.) [%] | Gastric juice, change ([1]; 5 mg/kg p.o.) [%] | Gastric acid, treated ([1]; 5 mg/kg p.o.) [mL] | Gastric juice, treated ([1]; 10 mg/kg p.o.) [mL] | Gastric acid, change ([1]; 10 mg/kg p.o.) [%] | Gastric juice, change ([1]; 10 mg/kg p.o.) [%] | Gastric acid, treated ([1]; 10 mg/kg p.o.) [mL] | Gastric juice, treated ([1]; 20 mg/kg p.o.) [mL] | Gastric acid, change ([1]; 20 mg/kg p.o.) [%] | Gastric juice, change ([1]; 20 mg/kg p.o.) [%] | Gastric acid, treated ([1]; 20 mg/kg p.o.) [mL] | Gastric juice, treated ([1]; 40 mg/kg p.o.) [mL] | Gastric acid, change ([1]; 40 mg/kg p.o.) [%] | Gastric juice, change ([1]; 40 mg/kg p.o.) | Gastric acid, treated ([1]; 40 mg/kg p.o.) [mL] | inhibitor effect on gastric acid secretion, in words [1] | ED50 [1] [mg/kg] | Bleedings, treated ([2]; 5 mg/kg p.o.) [mm] | Bleedings, change ([2]; 5 mg/kg p.o.) [%] | other results |
| --- | --- | --- | --- | --- | --- | --- | --- | --- | --- | --- | --- | --- | --- | --- | --- | --- | --- | --- | --- | --- | --- |
| CN(C)c1ccccc1CSc1nc(-c2ccccc2)cc(=O)[nH]1 [Example 5, 2-(2-dimethylamino-benzyl)thio-6-phenyl-4(3H)-pyrimidinone] | 5.77 | -24.9 | -17.3 | 2.11 | 5.51 | -62.0 | -19.6 | 2.06 | 4.33 | -86.3 | -37.1 | 0.37 | 6.80 | -94.5 | +6.8% | 0.18 | more active then either of both reference drugs | 8.1 | 73.5 | -26.3 | Bleedings, treated ([2]; 10 mg/kg p.o.): 47.6 mm; Bleedings, change ([2]; 10 mg/kg p.o.): -52.3%; Bleedings, treated ([2]; 20 mg/kg p.o.): 24.3 mm; Bleedings, change ([2]; 20 mg/kg p.o.): -81.7%; ED50 [2]: 9.9 mg/kg |
| CCN(C)c1ccccc1CSc1nc(C)cc(=O)[nH]1 [Example 10] |  |  |  |  | 5.23 | -32.5 | -13.7 | 1.89 | 5.23 | -60.3 | -18.0 | 1.23 | 5.39 | -87.3 | -24.8% | 0.45 | equiactive to the NC-1300 reference drug | 15.5 |  |  |  |
| COc1ccc2[nH]c([S+]([O-])Cc3ncc(C)c(OC)c3C)nc2c1 (centres unmarked) [Omeprazole, 2-[[(3,5-dimethyl-4-methoxypyridin-2-il)-methyl]-sulfinyl]-5-methoxy-1H-benzimidazole, reference compound] | 5.40 | -35.4 | -21.5 | 1.75 | 5.47 | -37.3 | -20.5 | 1.70 | 4.30 | -74.7 | -38.4 | 0.71 |  |  |  |  |  | 10.5 | 61.8 | -27.1 | Bleedings, treated ([2]; 10 mg/kg p.o.): 46.0 mm; Bleedings, change ([2]; 10 mg/kg p.o.): -45.8%; Bleedings, treated ([2]; 20 mg/kg p.o.): 14.2 mm; Bleedings, change ([2]; 20 mg/kg p.o.): -83.8%; ED50 [2]: 10 mg/kg; ED50 [3, 5]: 9.2 mg/kg; ED50 [3, 6]: 17 mg/kg; ED50 [3, 7]: 11 mg/kg; ED50 [4, 5]: 17 mg/kg; ED50 [4, 6]: 24 mg/kg; ED50 [4, 7]: 20 mg/kg |
